Experimental data taken from US20230406883A1, “COMPOUNDS AND THEIR USE IN TREATMENT OF TACHYKININ RECEPTOR MEDIATED DISORDERS” (Embark Biotech ApS, priority 2020, published 2023).
pEC50: −log10 of the molar value. Where “and” joins values, the source holds several entries; their conditions need not be identical. Equal values may be shown once. Numbered stars: 1 amine (or outer) side, 2 acyl side, 3 side chain; on linkers, the order of the positions; unused ones are H or OH. Square brackets hold non-standard residues; d marks the D form. Peptide text beside a SMILES is read from it. * marks the point of attachment. C18 diacid = O=C(O)CCCCCCCCCCCCCCCCC(=O)*; γGlu = O=C(O)[C@H](CCC(=O)[*:2])N[*:1]; NMeL = CN[C@@H](CC(C)C)C(=O)O; hSer = N[C@@H](CCO)C(=O)O; Nle = CCCC[C@H](N)C(=O)O; AEEA = NCCOCCOCC(=O)O

Key:
hNK2R [1] = target: T1, hNK2R (Homo sapiens, UniProt P21452); assay: Hithunter cAMP assay (Gs-coupling) in transfected COS-7 cells; assay type: cell-based; details: COS-7 cells
T1 construct: host or cells: COS-7
T1 sequence (P21452 1-398): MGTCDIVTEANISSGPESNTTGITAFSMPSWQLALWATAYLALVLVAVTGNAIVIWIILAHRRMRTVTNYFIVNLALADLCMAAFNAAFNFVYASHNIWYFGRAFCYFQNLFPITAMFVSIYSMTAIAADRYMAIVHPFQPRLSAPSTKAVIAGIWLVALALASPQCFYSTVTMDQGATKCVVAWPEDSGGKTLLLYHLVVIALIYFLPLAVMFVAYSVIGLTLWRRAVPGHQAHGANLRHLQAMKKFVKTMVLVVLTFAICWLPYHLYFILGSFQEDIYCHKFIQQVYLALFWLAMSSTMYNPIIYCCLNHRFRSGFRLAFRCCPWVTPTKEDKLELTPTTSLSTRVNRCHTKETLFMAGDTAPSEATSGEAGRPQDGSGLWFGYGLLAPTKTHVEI
Method: (§1) As a secondary measure of agonist-induced G-protein coupled receptor (GPCR) activation cyclin adenosine monophosphate (cAMP) was measured by the Hithunter cAMP-assay from DiscoverX. Assays were carried out using COS-7 cells transiently transfected by calcium phosphate transfection with a vector pcDNA3.1(+) encoding one of the indicated receptors (Genscript). Briefly, DNA mixed with CaCl2 (2 M) and TE-buffer (10 mM Tris-HCl, 1 mM EDTA, pH 7.5) was dropwise added to 2×HBS (50 mM HEPES, 280 mM NaCl, 1.5 mM NaH2PO4, pH 7.2) and incubated for 45 min at room temperature (22±2° C.). The mixture and a final concentration of 100 μM Chloroquine were added to the cells and left to incubate for 5 hours at 37° C. under standard cell culture conditions (10% CO2) before changing medium to fresh maintenance medium.
The cAMP-assay takes advantage of the tachykinin receptors' ability to induce production of the cAMP second messenger upon agonist (ligand) binding on receptor expressing cells. Production of cAMP stems from receptor coupling to Gs-protein although coupling to Gq-protein (IP3-production) is considered the primary signalling mechanism by tachykinin receptors.
The assay was performed the day after transfection. Briefly, maintenance medium was aspirated, and plates were washed ×1 in HBSS before adding assay buffer (HBSS+1 mM IBMX), pre-incubated for 30 min at 37° C. followed by 15 min incubation with agonist (ligand) at 37° C. After incubation, plates were subjected to cell lysis and anti-cAMP-antibody incubation as described by manufacturer. Luminescence was measured with EnVision Multimode Plate Reader from Perkin Elmer.

hNK2R [2] = target: T1, hNK2R; assay: 3H-NKA competitive binding on transfected COS-7 cells; details: competition with 3H-NKA, 4 h at 4 C
Method: as §1, with “Assays” for “As a secondary measure of agonist-induced G-protein coupled receptor (GPCR) activation cyclin adenosine monophosphate (cAMP) was measured by the Hithunter cAMP-assay from DiscoverX. Assays”
The ^3H-NKA binding assay measures peptide-receptor binding by a competitive principle of receptor binding between radioactively labelled (3H) NKA (tracer) and synthesized peptide ligands on live cells expressing the receptor of interest. Assay solutions used: TKR buffer (50 mM Tris/HCl pH 7.5, 5 mM MnCl2, and 150 mM NaCl), wash buffer (TKR buffer+0.2% w/v OvAlb), binding buffer (wash buffer+0.1 mg/ml Bacitracin), and tracer solution (binding buffer+˜15000 cpm/well ^3H-tracer). The assay was performed on ice the day after transfection.
Briefly, maintenance medium was aspirated, and plates were washed ×1 in cold wash buffer before adding 100 μl cold binding buffer and placing at 4° C. to let plates cool. The cold plates were added indicated peptides (ligand) immediately followed by addition of cold tracer solution (˜15000 cpm/well). Plates were immediately moved to 4° C. and incubated for 4 hours. After incubation, binding was stopped by wash ×2 with cold wash buffer before adding 225 μl Ultima Gold XR. Plates were shaken at medium speed for approximately 30 min and left overnight at room temperature before counting the plates in a MicroBeta plate counter (Perkin Elmer).

[3] = Energy expenditure and weight loss pharmacodynamics in DIO mice; assay type: in vivo; set-up: Energy expenditure efficacy (change relative to vehicle control) / Weight loss efficacy (change relative to vehicle control): concentration or dose not given beside the values; details: for Energy expenditure EC50 / Energy expenditure efficacy (change relative to vehicle control) / Weight loss EC50 / Weight loss efficacy (change relative to vehicle control): daily s.c. injections for nine days
Method: Indirect calorimetry was used to evaluate the ability of individual peptide analogues to dose-dependently increase energy expenditure (EE) we used metabolic cages and indirect calorimetry measured by the Promethion system. To this end, oxygen consumption was used as a surrogate measure for EE. Substrate preference (fat or carbohydrate) was evaluated using the respiratory exchange ratio (RER). In parallel, behavioral information such as walking distance and water and food intake were recorded.
Prior to experimentation, DIO mice were transferred to habituation cages for at least 10 days (5 days outside and at least 5 days in the Sable Systems gas analyzer module) to acclimatize. For all in vivo compound tests for EE evaluation, mice received subcutaneous injections between 2 and 4 pm.
Energy expenditure and weight loss pharmacodynamics: To evaluate the ability of individual peptide analogues to dose-dependently increase EE by indirect calorimetry in DIO mice. Body weights were monitored from beginning of habituation until end of experiment. After habituation, mice were treated with daily injections of NKA(4-10) analogues at four different doses or vehicle by daily subcutaneous injections for nine days.
EE increase over vehicle was calculated as percent of mean oxygen consumption over a 30-hour period after injection. Prior to injection peptide analogues were dissolved and diluted in in vivo buffer. In order to take into account, the different half-lives for the compounds tested, the doses for each compound were calculated based on the given compound's individual pk-profiles.

SMILES	pEC50 (hNK2R [1])	hNK2R, cAMP Efficacy (hNK2R [1])	pEC50 (hNK2R [2])	Energy expenditure EC50 [3] [nmol/kg]	Energy expenditure efficacy (change relative to vehicle control) [3] [%]	Weight loss EC50 [3] [nmol/kg]	Weight loss efficacy (change relative to vehicle control) [3] [%]	Reduced weight loss efficacy compared to compound 304, 344 and 383 [3]
CCCC[C@H](NC(=O)[C@H](CC(C)C)N(C)C(=O)CNC(=O)[C@@H](NC(=O)[C@H](Cc1ccccc1)NC(=O)[C@H](CCCCN)NC(=O)[C@H](CC(=O)O)NC(=O)COCCOCCNC(=O)COCCOCCNC(=O)CC[C@H](NC(=O)CCCCCCCCCCCCCCCCC(=O)O)C(=O)O)C(C)C)C(N)=O [compound 304, *Asp;Lys;Phe;Val;Gly;NmLeu;Nle;NH2]	8.64	100%	7.60	94	11	16	12	
CCCC[C@H](NC(=O)[C@H](CC(C)C)N(C)C(=O)CNC(=O)[C@@H](NC(=O)[C@H](Cc1ccc(O)cc1)NC(=O)[C@H](CCCCN)NC(=O)[C@H](CC(=O)O)NC(=O)COCCOCCNC(=O)COCCOCCNC(=O)CC[C@H](NC(=O)CCCCCCCCCCCCCCCCC(=O)O)C(=O)O)C(C)C)C(N)=O [compound 305, *Asp;Lys;Tyr;Val;Gly;NmLeu;Nle;NH2] ({C18 diacid-γGlu-AEEA-AEEA}-DKYVG[NMeL][Nle]-NH2)	9.15 and ~9.10	50% and 70%	7.68 and 6.68 and ~7.00	34	11	69	6	approximately 50%
COCC[C@H](NC(=O)[C@H](CC(C)C)N(C)C(=O)CNC(=O)[C@@H](NC(=O)[C@H](Cc1ccc(O)cc1)NC(=O)[C@H](CCCCN)NC(=O)[C@H](CC(=O)O)NC(=O)COCCOCCNC(=O)COCCOCCNC(=O)CC[C@H](NC(=O)CCCCCCCCCCCCCCCCC(=O)O)C(=O)O)C(C)C)C(N)=O [compound 344, *Asp;Lys;Tyr;Val;Gly;NmLeu;Metox;NH2] ({C18 diacid-γGlu-AEEA-AEEA}-DKYVG[NMeL][hSer](Me)-NH2)	7.55	96% and 100%	7.03 and 7.05	13	12	130	10	
COCC[C@H](NC(=O)[C@H](CC(C)C)N(C)C(=O)CNC(=O)[C@@H](NC(=O)[C@H](Cc1ccccc1)NC(=O)[C@H](CCCCN)NC(=O)[C@H](CC(=O)O)NC(=O)COCCOCCNC(=O)COCCOCCNC(=O)CC[C@H](NC(=O)CCCCCCCCCCCCCCCCC(=O)O)C(=O)O)[C@@H](C)O)C(N)=O [compound 383, *Asp;Lys;Phe;Thr;Gly;NmLeu;Metox;NH2] ({C18 diacid-γGlu-AEEA-AEEA}-DKFTG[NMeL][hSer](Me)-NH2)	~7.96	89%	7.96	110	11	83	11	
